# Assay results reported in patent US20210196731A1, “COMPOSITIONS AND METHODS FOR TREATING OCULAR INFLAMMATION AND OCULAR SCARRING” (priority 2018, published 2021).
# Assays:
# HTCFs = test: Lipid Mediator Secretion Assay I (ASA with and without melittin, LC-MS/MS); format: cell-based, human; settings: ASA 200 μg/ml
# Method: The aim of this experiment was to assess the relative secretion of COX2 vs. acetylated-COX2 products from HTCFs after an inflammatory stimulus followed by exposure to ASA with and without an extremely potent PLA2 agonist—melittin. To this end, multiple primary HTCF cell lines were cultured in DMEM w/10% FBS in 6-well culture plates, incubated at 37 C and 5% CO2, until 90% confluent. The culture media was removed, wells washed with PBS, and then fresh DMEM w/0% FBS was added. After 24 hrs of serum starvation, fresh DMEM w/0% FBS was added, this time containing a physiologically relevant inflammation/wound healing induction mixture (1 ng/ml each of: IL-1b, TNFa, IFNγ, TGFb). After 12 hrs incubation, the induction media was removed, the wells were washed with PBS and fresh DMEM w/0% FBS was added containing one of three experimental treatments for an incubation period of 24 hrs: 1) vehicle control (DMEM w/0% FBS), and 2) ASA 200 (DMEM w/0% FBS and 200 μg/ml ASA), and 3) ASA/Mel. (DMEM w/0% FBS, 200 μg/ml ASA and 10 μg/ml of melittin, a potent PLA2 agonist). At 6, 12 and 24 hrs after addition of the experimental treatments, 250 ul of supernatant was removed from each well, replaced with 250 ul of fresh DMEM w/0% FBS, and stored at −80° C. for subsequent LC-MS/MS analysis. After 24 hrs, the wells were washed with ice cold PBS three times and total cellular protein from the HTCF monolayer was collected for quantification and subsequent western blot analyses. The absolute quantity of protein within each culture well's HTCF monolayer was used as a means to standardize the relative secretion of lipid mediators by HTCFs into the culture well's supernatant.
# Relative quantification of secreted lipid mediators was achieved using liquid chromatography tandem mass spectrometry combined with the addition of a known quantity of deuterated versions of the lipid mediators to each sample as internal standards (Item Numbers: #10007737, #320110, #314010, #11182, #315210, #319030, #390030, #10006410, #10006199, #334230, and #10008040, Cayman Chemical). This is a well-established method to determine the relative activity of cyclooxygenase, acetyl-COX2 and lipoxygenase biosynthetic pathways. In brief, the ratios of the integrated areas of the chromatographic peaks corresponding to each analyte and the integrated areas of the peaks corresponding to each analyte's internal standard (with known absolute quantity) are used to determine the relative quantity of each analyte in a given sample. […] The chromatographic profile of the ion count for each m/z transition was monitored, and the area under the peaks (ion intensity vs elution time) was integrated using commercial software (MultiQuant, Sciex).
# MMP9 = test: Western blot of HTCF protein lysate, MMP9; format: cell-based, human; settings: ASA 100, 400, 1600 μg/ml, 48 hrs
# Method: Cells were lysed in lysis buffer (PhosphoSafe Extraction Reagent, Novagen) containing a protease inhibitor cocktail (P2714, Sigma-Aldrich). Crude protein lysate was quantified using a Pierce BCA protein assay kit (ThermoFisher, Mississauga, ON) and 10 ug from each sample was resolved using a Novex WedgeWell 4-20% tris-glycine gel (Invitrogen). Using an iBlot Gel Transfer Device (IB1001, Invitrogen), the separated protein was transferred to a nitrocellulose membrane (1B301001, iBlot Transfer Stack, Invitrogen) which was then blocked with 5% (w/v) bovine serum albumin (Sigma-Aldrich) in Tris buffered saline (TBST) for 1 hour at room temperature. The membranes were incubated overnight at 4° C. with primary antibody diluted in TBST containing 5% BSA (w/vol). Primary antibodies used were as follows: collagen 1 (ab138492, Abcam), αSMA (ab5694, Abcam), MMP9 (ab38898, Abcam), PPARγ (sc-7273, SantaCruz Biotechnology), SMAD2/3 (ab63672, Abcam), pSMAD2/3 (ab63399, Abcam) and GAPDH (sc-47724, Santa Cruz Biotechnology, Inc.). […] Imaging and relative densiometric quantification was accomplished using a ChemiDoc MP System (Bio-Rad Laboratories, Inc.) connected to Image Lab (Version 6, Bio-Rad Laboratories, Inc.).
# [1] = alone or with melittin 10 μg/ml, vs vehicle control
smiles,measurement,setting,value
"CC(=O)Oc1ccccc1C(=O)O [ASA, acetylsalicylic acid]",relative amount of COX2 products relative to inf. cytokines control,HTCFs,decrease the relative amount of COX2 products relative to inf. cytokines control
same,"relative secretion of precursor PUFAs (AA, DHA and EPA)","HTCFs; alone or with melittin 10 μg/ml, supernatant at 6, 12, 24 hrs",no significant increase in relative secretion of precursor PUFAs
same,relative secretion of acetylated-COX2 products,HTCFs; [1],no significant increase in the relative secretion of acetylated-COX2 products
same,secretion of COX2 products,HTCFs; [1],decrease the secretion of COX2 products relative to vehicle control; however this effect was not statistically significant
same,AHGF-induced expression of MMP9,MMP9,significantly impaired the AHGF-induced expression
